Several values for one entry are separate records, joined by “and”; a condition that tells them apart may be missing. Equal entries are not always repeated. Records with an inconclusive call do not appear. Residues, ends and D or L forms follow the SMILES beside them. *: point of attachment. Trt = c1ccc(C(c2ccccc2)(c2ccccc2)*)cc1; Cbz = O=C(OCc1ccccc1)*
Test system: CD8F1 mice, subcutaneous mammary adenocarcinoma, T/C%
Assay: NCI In Vivo Anticancer Drug Screen. Data for tumor model Mammary Adenocarcinoma CD8F1 (subcutaneous) in CD8F1
Settings: higher = larger tumour
Procedure, shortened: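 Ratio of treated to vehicle-control outcome, based on either survival or tumor size, in mice bearing transplantable tumors given the test compound.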

[1] = endpoint: median tumor weight (est.), dose: 12.5 mg/kg/injection, schedule: Q07DX005 (ip), vehicle: saline with Tween-80
[2] = endpoint: median tumor weight (est.), dose: 25.0 mg/kg/injection, schedule: Q07DX005 (ip), vehicle: saline with Tween-80
[3] = endpoint: median tumor weight (est.), dose: 50.0 mg/kg/injection, schedule: Q07DX005 (ip), vehicle: saline with Tween-80
[4] = endpoint: median tumor weight (est.), dose: 200.0 mg/kg/injection, schedule: Q07DX005 (ip), vehicle: saline with Tween-80
[5] = endpoint: median tumor weight change, dose: 125.0 mg/kg/injection, schedule: Q01DX001 (ip), vehicle: saline with Tween-80
[6] = endpoint: median tumor weight (est.), dose: 100.0 mg/kg/injection, schedule: Q07DX005 (ip), vehicle: saline with Tween-80

Question: `COc1cc2c(c(OC)c1OC)-c1c(cc3c(c1OC)OCO3)CC(C)C(C)(O)C2OC(=O)c1ccccc1` (centres undefined) was tested. Which T/C (endpoint: median tumor weight change, dose: 31.0 mg/kg/injection, schedule: Q01DX001 (ip), vehicle: saline + Tween-80 + alcohol) did it give?
Answer: 93 % of control

Question: And the T/C (endpoint: median tumor weight change, dose: 125.0 mg/kg/injection, schedule: Q01DX001 (ip), vehicle: saline + Tween-80 + alcohol)?
Answer: 121 % of control

Question: What about the T/C (endpoint: median tumor weight change, dose: 250.0 mg/kg/injection, schedule: Q01DX001 (ip), vehicle: saline + Tween-80 + alcohol) of the same molecule?
Answer: 95 % of control

Question: What about the T/C (endpoint: median tumor weight change, dose: 500.0 mg/kg/injection, schedule: Q01DX001 (ip), vehicle: saline + Tween-80 + alcohol) of the same molecule?
Answer: 110 % of control

Question: What about the T/C (endpoint: median tumor weight change, dose: 900.0 mg/kg/injection, schedule: Q01DX001 (ip), vehicle: saline + alcohol) of the same molecule?
Answer: 96 % of control

Question: And the T/C (endpoint: median tumor weight change, dose: 1800.0 mg/kg/injection, schedule: Q01DX001 (ip), vehicle: saline + alcohol)?
Answer: 124 % of control

Question: And the T/C (endpoint: median tumor weight change, dose: 3600.0 mg/kg/injection, schedule: Q01DX001 (ip), vehicle: saline + alcohol)?
Answer: 59 % of control

Question: How did the T/C (endpoint: median tumor weight (est.), dose: 7.0 mg/kg/injection, schedule: Q07DX005 (ip), vehicle: saline with Tween-80) turn out when `CO[C@H]1C[C@](C)(O)Cc2cc3c(c(O)c21)C(=O)c1c(O)cc2c(c1C3=O)O[C@@H]1O[C@@]2(C)[C@H](O)[C@@H](N(C)C)[C@@H]1O` was run?
Answer: 62 % of control

Question: And the T/C (endpoint: median tumor weight (est.), dose: 11.0 mg/kg/injection, schedule: Q07DX005 (ip), vehicle: saline with Tween-80)?
Answer: 60 % of control

Question: What about the T/C (endpoint: median tumor weight (est.), dose: 16.0 mg/kg/injection, schedule: Q07DX005 (ip), vehicle: saline with Tween-80) of the same molecule?
Answer: 75 % of control

Question: What about the T/C (endpoint: median tumor weight (est.), dose: 24.0 mg/kg/injection, schedule: Q07DX005 (ip), vehicle: saline with Tween-80) of the same molecule?
Answer: 64 % of control

Question: What about the T/C (endpoint: median tumor weight (est.), dose: 48.0 mg/kg/injection, schedule: Q07DX005 (ip), vehicle: saline with Tween-80) of the same molecule?
Answer: 10 % of control

Question: For `COC1=C(OC)C(=O)C(Sc2ccc3ccccc3c2)=CC1=O`, which T/C [1] is on record?
Answer: 115 % of control

Question: And the T/C [2]?
Answer: 84 % of control

Question: And the T/C [3]?
Answer: 122 % of control

Question: What about the T/C [4] of the same molecule?
Answer: 92 % of control

Question: Which T/C (endpoint: median tumor weight change, dose: 125.0 mg/kg/injection, schedule: Q01DX001 (ip), vehicle: distilled water + Tween-80) does the source give for `COC(=O)C(CSC(c1ccccc1)(c1ccccc1)c1ccccc1)NC(=O)C(CC(N)=O)NC(=O)OCc1ccccc1` (stereo not drawn) (Cbz-Asn-Cys(Trt)-OMe; configuration not given here) here?
Answer: 101 % of control and 116 % of control

Question: And the T/C (endpoint: median tumor weight change, dose: 500.0 mg/kg/injection, schedule: Q01DX001 (ip), vehicle: distilled water + Tween-80)?
Answer: 50 % of control

Question: What about the T/C (endpoint: median tumor weight change, dose: 2000.0 mg/kg/injection, schedule: Q01DX001 (ip), vehicle: distilled water + Tween-80) of the same molecule?
Answer: 40 % of control and 57 % of control

Question: Which results are given for `Clc1ccc2nnnn2n1`?
Answer: T/C [5]: 49 % of control; T/C (endpoint: median tumor weight change, dose: 250.0 mg/kg/injection, schedule: Q01DX001 (ip), vehicle: saline with Tween-80): 61 % of control

Question: Which T/C (endpoint: median tumor weight (est.), dose: 25.0 mg/kg/injection, schedule: Q07DX005 (ip), vehicle: Klucel (hydroxypropylcellulose) (HPC)) does the source give for `C(C#CCN1CCOCC1)#CCN1CCOCC1` here?
Answer: 181 % of control

Question: What about the T/C (endpoint: median tumor weight (est.), dose: 50.0 mg/kg/injection, schedule: Q07DX005 (ip), vehicle: Klucel (hydroxypropylcellulose) (HPC)) of the same molecule?
Answer: 43 % of control

Question: And the T/C (endpoint: median tumor weight (est.), dose: 100.0 mg/kg/injection, schedule: Q07DX005 (ip), vehicle: Klucel (hydroxypropylcellulose) (HPC))?
Answer: 48 % of control

Question: What about the T/C (endpoint: median tumor weight (est.), dose: 200.0 mg/kg/injection, schedule: Q07DX005 (ip), vehicle: Klucel (hydroxypropylcellulose) (HPC)) of the same molecule?
Answer: 41 % of control

Question: And the T/C (endpoint: median tumor weight (est.), dose: 400.0 mg/kg/injection, schedule: Q07DX005 (ip), vehicle: Klucel (hydroxypropylcellulose) (HPC))?
Answer: 68 % of control

Question: And the T/C (endpoint: median tumor weight (est.), dose: 800.0 mg/kg/injection, schedule: Q07DX005 (ip), vehicle: Klucel (hydroxypropylcellulose) (HPC))?
Answer: 62 % of control

Question: `Nc1nc2c(ncn2C2OC(CO)C(O)C2O)c(=O)[nH]1` (centres undefined) was tested. Which T/C [6] did it give?
Answer: 86 % of control

Question: And the T/C [4]?
Answer: 92 % of control

Question: And the T/C (endpoint: median tumor weight (est.), dose: 400.0 mg/kg/injection, schedule: Q07DX005 (ip), vehicle: saline with Tween-80)?
Answer: 110 % of control

Question: What about the T/C (endpoint: median tumor weight (est.), dose: 800.0 mg/kg/injection, schedule: Q07DX005 (ip), vehicle: saline with Tween-80) of the same molecule?
Answer: 88 % of control

Question: And the T/C (endpoint: median tumor weight (est.), dose: 1600.0 mg/kg/injection, schedule: Q07DX005 (ip), vehicle: saline with Tween-80)?
Answer: 103 % of control

Question: What about the T/C (endpoint: median tumor weight (est.), dose: 3200.0 mg/kg/injection, schedule: Q07DX005 (ip), vehicle: saline with Tween-80) of the same molecule?
Answer: 84 % of control

Question: For `CN(C)CCOc1ccc2c(c1)C/C(=C/c1ncc([N+](=O)[O-])n1C)C2=O`, which T/C [1] is on record?
Answer: 113 % of control

Question: And the T/C [2]?
Answer: 100 % of control

Question: And the T/C [3]?
Answer: 93 % of control

Question: And the T/C [6]?
Answer: 61 % of control

Question: Which T/C (endpoint: median tumor weight change, dose: 6.25 mg/kg/injection, schedule: Q01DX001 (ip), vehicle: Klucel (hydroxypropylcellulose) (HPC)) does the source give for `CC(=O)OCC1OC([S-])C(OC(C)=O)C(OC(C)=O)C1OC(C)=O.CC[PH+](CC)CC.CC[PH+](CC)CC.[Au].[Au]` (centres undefined) here?
Answer: 63 % of control

Question: And the T/C (endpoint: median tumor weight change, dose: 12.5 mg/kg/injection, schedule: Q01DX001 (ip), vehicle: Klucel (hydroxypropylcellulose) (HPC))?
Answer: 109 % of control

Question: Which T/C (endpoint: median tumor weight change, dose: 62.5 mg/kg/injection, schedule: Q01DX001 (ip), vehicle: DMSO) does the source give for `CCCCNc1ccc2nnc(C)n2n1` here?
Answer: 111 % of control

Question: And the T/C (endpoint: median tumor weight change, dose: 125.0 mg/kg/injection, schedule: Q01DX001 (ip), vehicle: DMSO)?
Answer: 118 % of control

Question: `C=CCNc1nc2c(s1)CCc1cc(OC)c(OC)cc1-2` was tested. Which T/C [1] did it give?
Answer: 65 % of control

Question: And the T/C [2]?
Answer: 44 % of control

Question: And the T/C [3]?
Answer: 55 % of control

Question: And the T/C [6]?
Answer: 74 % of control

Question: And the T/C [4]?
Answer: 81 % of control

Question: Which results are given for `COc1cccc2c1C(=O)c1c(O)c3c(c(O)c1C2=O)CC(O)(/C(C)=N/NC(=O)CCCCC(=O)N/N=C(\C)C1(O)Cc2c(O)c4c(c(O)c2C(OC2CC(N)C(O)C(C)O2)C1)C(=O)c1c(OC)cccc1C4=O)CC3OC1CC(N)C(O)C(C)O1` (centres undefined)?
Answer: T/C (endpoint: median tumor weight change, dose: 16.0 mg/kg/injection, schedule: Q01DX001 (ip), vehicle: water): 113 % of control; T/C (endpoint: median tumor weight change, dose: 31.0 mg/kg/injection, schedule: Q01DX001 (ip), vehicle: water): 36 % of control

Question: For `CN=C(N)N/N=C(\C)c1ccc2oc3ccc(/C(C)=N/NC(N)=NC)cc3c2c1`, which T/C (endpoint: median tumor weight change, dose: 62.5 mg/kg/injection, schedule: Q01DX001 (ip), vehicle: saline with Tween-80) is on record?
Answer: 87 % of control

Question: What about the T/C [5] of the same molecule?
Answer: 63 % of control

Question: `Nc1nc(=O)n(C2OC(CO)C(O)C2O)cc1F` (centres undefined) was tested. Which T/C (endpoint: median tumor weight (est.), dose: 12.5 mg/kg/injection, schedule: Q07DX005 (ip), vehicle: saline) did it give?
Answer: 91 % of control

Question: What about the T/C (endpoint: median tumor weight (est.), dose: 25.0 mg/kg/injection, schedule: Q07DX005 (ip), vehicle: saline) of the same molecule?
Answer: 93 % of control

Question: What about the T/C (endpoint: median tumor weight (est.), dose: 50.0 mg/kg/injection, schedule: Q07DX005 (ip), vehicle: saline) of the same molecule?
Answer: 61 % of control

Question: What about the T/C (endpoint: median tumor weight (est.), dose: 100.0 mg/kg/injection, schedule: Q07DX005 (ip), vehicle: saline) of the same molecule?
Answer: 78 % of control

Question: And the T/C (endpoint: median tumor weight (est.), dose: 200.0 mg/kg/injection, schedule: Q07DX005 (ip), vehicle: saline)?
Answer: 46 % of control

Question: What about the T/C (endpoint: median tumor weight (est.), dose: 400.0 mg/kg/injection, schedule: Q07DX005 (ip), vehicle: saline) of the same molecule?
Answer: 34 % of control

Question: For `COc1cc([C@@H]2c3cc4c(c(O)c3C[C@H]3COC(=O)[C@@H]32)OCO4)cc(OC)c1O`, which T/C (endpoint: median tumor weight (est.), dose: 0.5 mg/kg/injection, schedule: Q07DX005 (ip), vehicle: saline) is on record?
Answer: 275 % of control

Question: What about the T/C (endpoint: median tumor weight (est.), dose: 1.0 mg/kg/injection, schedule: Q07DX005 (ip), vehicle: saline) of the same molecule?
Answer: 85 % of control

Question: What about the T/C (endpoint: median tumor weight (est.), dose: 2.0 mg/kg/injection, schedule: Q07DX005 (ip), vehicle: saline) of the same molecule?
Answer: 56 % of control

Question: What about the T/C (endpoint: median tumor weight (est.), dose: 4.0 mg/kg/injection, schedule: Q07DX005 (ip), vehicle: saline) of the same molecule?
Answer: 26 % of control

Question: What about the T/C (endpoint: median tumor weight (est.), dose: 8.0 mg/kg/injection, schedule: Q07DX005 (ip), vehicle: saline) of the same molecule?
Answer: 27 % of control

Question: What does the source list for `COC(=O)C12OCC34C(CC5C(C)=CC(=O)C(O)C5(C)C3C(O)C1O)OC(=O)C(OC(=O)CC(C)C)C24` (centres undefined)?
Answer: T/C (endpoint: median tumor weight (est.), dose: 0.13 mg/kg/injection, schedule: Q07DX005 (ip), vehicle: saline + alcohol): 107 % of control; T/C (endpoint: median tumor weight (est.), dose: 0.5 mg/kg/injection, schedule: Q07DX005 (ip), vehicle: saline + alcohol): 82 % of control; T/C (endpoint: median tumor weight (est.), dose: 1.0 mg/kg/injection, schedule: Q07DX005 (ip), vehicle: saline + alcohol): 64 % of control; T/C (endpoint: median tumor weight (est.), dose: 2.0 mg/kg/injection, schedule: Q07DX005 (ip), vehicle: saline + alcohol): 47 % of control

Question: What does the source list for `[N-]=[N+]=[N-]`?
Answer: T/C (endpoint: median tumor weight change, dose: 3.0 mg/kg/injection, schedule: Q01DX001 (ip), vehicle: saline): 72 % of control; T/C (endpoint: median tumor weight change, dose: 6.0 mg/kg/injection, schedule: Q01DX001 (ip), vehicle: saline): 104 % of control; T/C (endpoint: median tumor weight change, dose: 12.0 mg/kg/injection, schedule: Q01DX001 (ip), vehicle: saline): 122 % of control; T/C (endpoint: median tumor weight change, dose: 24.0 mg/kg/injection, schedule: Q01DX001 (ip), vehicle: saline): 66 % of control
